Source: patent US8703829B2, “Therapeutic compounds” (University of Louisville Research Foundation, Inc., priority 2007, dated 2014)

What was measured:
[1] = tested on: panel of 60 human tumor cell lines; assay: Test D: screen against a panel of 60 human tumor cell lines; assay type: cell-based
Source text: Test D Anti-Cancer Activity
The compound of Example 1 below was screened against a panel of 60 human tumor cell lines.

[2] = tested on: total DNA methyltransferase activity in A549 non-small cell lung cancer cells; assay: Test E experiments 1 and 2: DNA methyltransferase activity of nuclear extracts from treated A549 cells (EpiQuik kit); assay type: cell-based, human
Procedure: (§1) Test E The Methyltransferase Activity of the Compound of Example 1 was Evaluated as Follows.
(§2) For experiments 1 and 2, A549 non-small cell lung cancer cells were incubated with the compound of Example 1 (1 μM final concentration) or vehicle (untreated) for 2 h and nuclear extracts were prepared by standard methods. The total DNA methyltransferase activity of the extracts was measured using EpiQuik™ DNA Methyltransferase Activity/Inhibition Assay Kit (Epigentek, Brooklyn, N.Y.), according to the manufacturer's directions. For experiment 3, the assay was carried out using purified HeLa nuclear extracts in the presence of the compound of Example 1 (500 nM final concentration) or vehicle (untreated).
(§3) The assay involves incubation of nuclear extracts (as a source of DNA methyltransferase activity) with immobilized DNA substrate in the presence of Adomet (methyl donor). The DNA methyltransferase activity was measured by determining levels of 5-methylcytosine in the DNA substrate using a primary antibody to 5-methylcytosine and a secondary antibody for colorimetric detection at 450 nm.

[3] = tested on: DNA methyltransferase activity of HeLa nuclear extracts; assay: Test E experiment 3: DNA methyltransferase activity of purified HeLa nuclear extracts incubated in vitro with compound (EpiQuik kit); assay type: biochemical; conditions: experiment 3: 20 μg HeLa nuclear extracts incubated in vitro with 500 nM; untreated 0.264
Procedure: as §1, §2, §3

[4] = tested on: A549 human non-small cell lung cancer xenografts; assay type: in vivo
Source text: FIG. 2. […] (A) Tumor growth appeared to be reduced in mice treated with the compound of Example 1, but the effect was not statistically significant (p≧0.13). […] Compare with the mean±SE in the control group.
Test F In-vivo Effects of Compound of Example 1.
The following study was designed to assess toxicity and activity in female nude mice bearing A549 human non-small cell lung cancer xenografts. Athymic nude mice were inoculated subcutaneously (s.c.) with A549 cells and treatment began after small tumors were visible. The compound of Example 1 was prepared at 100 mg/ml or 50 mg/ml in DMSO and diluted 1:10 with sterile PBS. Mice were treated by intraperitoneal (i.p.) injections of 100 μl of these solutions, equivalent to approximately 25 mg/kg or 50 mg/kg; the control group received identical injections of vehicle (10% DMSO in PBS). Mice received injections of the compound of Example 1 or vehicle five times per week (once per day, except on weekends) for up to 30 injections. […] Evaluating the long-term outcome was complicated by the fact that several animals in the compound of Example 1 treated groups developed tumor necrosis/ulceration and had to be euthanized before the end of the experiment, as required by IACUC protocol. This tumor necrosis is believed to be treatment-related as it occurred in 5/12 treated animals, but 0/6 of the control group. […] The overall response seemed to be equivalent or better in the low dose group compared with the high dose group, but that may be consistent with the mechanism of action, since a similar effect has been observed for decitabine in humans.

In the case of `CCCCCC(O)C#CC(F)(F)Br` (stereo not drawn) [Example 1, 1-bromo-1,1-difluoro-non-2-yn-4-ol], the GI50 ([1]; Homo sapiens, all seven breast cancer cell lines, including a doxorubicin-resistant line) was 10 to 66 nM, the “activity by tumor type” value ([1]; breast, prostate, colon and brain (CNS) tumor cells) was “highly active” and the “activity by tumor type” value ([1]; other tumor types, e.g. melanomas) was “less potent”. The “Relative DNA Methyltransferase Activity” value ([2]; experiment 1: nuclear extracts from lung cancer cells treated 1 μM for 2 h, untreated 0.114) was 0.073, the “Relative DNA Methyltransferase Activity” value ([2]; experiment 2 (repeat): nuclear extracts from lung cancer cells treated 1 μM for 2 h, untreated 0.122) was 0.075 and the “Relative DNA Methyltransferase Activity” value [3] was 0.092. For the same compound, the “tumor necrosis/ulceration, treated animals affected” value ([4]; approx. 25 or 50 mg/kg i.p., 0/6 in the control group) was 5/12, the “tumor growth compared to control-treated mice” value ([4]; approx. 25 or 50 mg/kg i.p., difference not statistically significant (p≧0.13)) was “grew slower” and the “size of ulcerated tumors versus control group at the same time point” value ([4]; treated mice euthanized early due to tumor necrosis) was “substantially smaller”.
